Results: US12569464B2, “Protein-protein interaction inducing technology” (Arvinas Operations, Inc., priority 2016, dated 2026)

What was measured:
Androgen Receptor = biological target: T1, Androgen Receptor (Homo sapiens, UniProt P10275); test: Cell-based ligand (R1881) displacement assay, binary binding to AR; conditions: read-out: binary binding potency IC50^AR in cells
T1 construct: expressed in transfected cells; host or cells: HEK293
T1 sequence (P10275 1-920): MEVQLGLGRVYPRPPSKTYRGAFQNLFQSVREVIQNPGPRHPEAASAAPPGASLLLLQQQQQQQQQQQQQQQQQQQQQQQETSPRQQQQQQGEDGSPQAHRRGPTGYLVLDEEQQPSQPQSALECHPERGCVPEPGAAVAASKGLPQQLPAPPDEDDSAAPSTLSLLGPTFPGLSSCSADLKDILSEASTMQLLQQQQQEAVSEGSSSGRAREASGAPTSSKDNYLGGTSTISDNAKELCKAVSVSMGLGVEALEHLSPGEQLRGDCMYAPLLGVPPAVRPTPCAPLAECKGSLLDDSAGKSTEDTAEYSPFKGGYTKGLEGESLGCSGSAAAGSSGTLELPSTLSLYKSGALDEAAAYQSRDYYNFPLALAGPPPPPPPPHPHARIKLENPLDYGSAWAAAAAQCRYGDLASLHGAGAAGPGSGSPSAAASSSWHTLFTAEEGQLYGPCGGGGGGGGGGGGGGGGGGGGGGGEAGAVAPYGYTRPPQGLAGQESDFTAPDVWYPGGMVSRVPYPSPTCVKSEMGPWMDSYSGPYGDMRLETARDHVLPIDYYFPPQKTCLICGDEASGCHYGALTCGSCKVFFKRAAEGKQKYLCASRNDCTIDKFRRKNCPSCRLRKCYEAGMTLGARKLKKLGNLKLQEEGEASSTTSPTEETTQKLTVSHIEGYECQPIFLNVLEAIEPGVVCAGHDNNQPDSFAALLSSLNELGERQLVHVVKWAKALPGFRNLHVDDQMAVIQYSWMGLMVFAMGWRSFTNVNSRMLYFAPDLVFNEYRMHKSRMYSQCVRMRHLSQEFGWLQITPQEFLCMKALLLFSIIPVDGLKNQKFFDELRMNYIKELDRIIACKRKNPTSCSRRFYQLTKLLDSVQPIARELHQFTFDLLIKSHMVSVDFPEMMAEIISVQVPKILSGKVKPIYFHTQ
Procedure: It is composed of an AR-binding warhead which is connected to a VHL-binding warhead by a linear connector. […] MD simulation of a ternary system composed of AR ligand-binding domain, a ligand and the complex of VHL with elongin B (EB) and elongin C (EC) in the presence of explicit water was performed. The ligand in the simulation is a close analog of the ligand L above and only differs from the ligand L above by having a methyl substitution at the 4-position of the thiazole group.
(§1) The connector linking the AR-binding warhead and the VHL-binding warhead was systematically probed from 4 to 23 atoms. The AR degradation potency DC50 and the maximum percentage of degradation Dmax of AR in LNCaP cells were measured for each of these compounds. […] The binary binding potency with respect to AR was also measured for some of the compounds by the cell-based ligand (R1881) displacement assay. The ratio α between the AR-binding potency and the degradation potency are calculated when it is possible.
The experimental protocol is based on reference Gustafson et al. (Angew. Chem. Int. Ed., 54: 9659-9662). HEK293 cells were transiently transfected using Fugene 6 to overexpress wildtype Androgen Receptor. During binding assay, transfected cells were grown in DMEM supplemented with 10% charcoal-stripped FBS. Cells were treated for two hours with the indicated competitor compound in the presence of 0.1 nM ^3H-R1881. Cells were washed in PBS, lysed in 200 ul lysis buffer (2% SDS, 10% Glycerol, 10 mM Tris-HCl [pH 6.8]), and cleared with the addition of 300 ul of 10 mM Tris-HCl (pH 8.0). 300 ul of these lysates were added to 3 mL of Cytoscint (MP Biomedicals), and scintillation counting was performed on a Beckman LS 6000SC instrument. Counts (cpm) were normalized to total protein amount in each sample, as determined via the Pierce BCA Protein Assay Kit (Thermo Scientific) per the manufacturer's instructions.

AR = biological target: T2, AR (Homo sapiens, UniProt P10275+P40337, T878A); test: AR degradation in LNCaP cells (androgen receptor ELISA); assay type: cell-based; conditions: for maximum AR degradation Dmax / DC50 / Dmax: LNCaP cells; for DC50: read-out: AR degradation potency DC50; for Dmax: read-out: maximum AR degradation Dmax
T2 construct: degradation Dmax of AR in LNCaP cells; endogenous in cells; host or cells: LNCaP
T2 sequence (Q15370 whole entry): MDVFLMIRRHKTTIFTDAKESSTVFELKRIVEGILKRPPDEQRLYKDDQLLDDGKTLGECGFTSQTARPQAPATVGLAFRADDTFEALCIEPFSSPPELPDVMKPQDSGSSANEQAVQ
T2 sequence (P40337 whole entry): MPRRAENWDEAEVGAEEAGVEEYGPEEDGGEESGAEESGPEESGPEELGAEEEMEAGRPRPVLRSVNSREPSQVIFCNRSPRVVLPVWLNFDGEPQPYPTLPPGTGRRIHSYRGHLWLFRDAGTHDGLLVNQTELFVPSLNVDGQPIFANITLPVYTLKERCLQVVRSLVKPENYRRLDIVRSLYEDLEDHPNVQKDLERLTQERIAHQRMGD
T2 sequence (P10275 whole entry T878A): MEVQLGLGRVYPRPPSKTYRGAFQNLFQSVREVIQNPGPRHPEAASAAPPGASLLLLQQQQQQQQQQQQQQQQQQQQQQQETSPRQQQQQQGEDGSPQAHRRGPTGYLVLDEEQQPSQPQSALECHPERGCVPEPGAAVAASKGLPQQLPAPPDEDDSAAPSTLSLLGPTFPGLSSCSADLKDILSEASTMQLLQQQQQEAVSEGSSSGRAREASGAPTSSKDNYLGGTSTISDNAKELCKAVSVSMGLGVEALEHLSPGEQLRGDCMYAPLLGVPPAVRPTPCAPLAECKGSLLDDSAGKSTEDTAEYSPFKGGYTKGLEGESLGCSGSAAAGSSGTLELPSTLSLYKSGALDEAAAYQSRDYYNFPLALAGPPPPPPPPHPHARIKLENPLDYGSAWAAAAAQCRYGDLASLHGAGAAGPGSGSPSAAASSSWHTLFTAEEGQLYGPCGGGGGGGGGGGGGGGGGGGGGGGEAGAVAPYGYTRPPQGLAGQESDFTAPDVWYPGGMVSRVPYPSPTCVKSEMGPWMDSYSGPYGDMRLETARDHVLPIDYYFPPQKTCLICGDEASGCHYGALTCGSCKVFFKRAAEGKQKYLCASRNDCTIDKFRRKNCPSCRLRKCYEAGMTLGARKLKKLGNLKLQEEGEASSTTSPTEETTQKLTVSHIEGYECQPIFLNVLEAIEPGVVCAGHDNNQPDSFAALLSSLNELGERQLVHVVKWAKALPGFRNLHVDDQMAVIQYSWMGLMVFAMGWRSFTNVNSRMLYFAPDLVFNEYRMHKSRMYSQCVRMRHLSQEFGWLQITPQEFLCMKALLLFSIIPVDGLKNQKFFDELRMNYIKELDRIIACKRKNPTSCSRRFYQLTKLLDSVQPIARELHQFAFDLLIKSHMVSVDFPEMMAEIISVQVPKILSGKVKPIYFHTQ
T2 sequence (Q15369 whole entry, further chain): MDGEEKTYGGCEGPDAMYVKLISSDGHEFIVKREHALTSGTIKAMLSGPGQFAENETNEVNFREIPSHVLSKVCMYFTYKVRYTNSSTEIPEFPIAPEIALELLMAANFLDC
Procedure: as §1
Androgen Receptor ELISA Assay
The protocols used with VCaP cells are described below. The androgen receptor ELISA assay was performed using PathScan AR ELISA (Cell Signaling Catalog #12850) according to the following assay steps: […]

SMILES	IC50 (Androgen Receptor)	ratio α between AR-binding potency IC50 and degradation potency DC50 (AR)	maximum AR degradation Dmax (AR)	DC50 (AR)	Dmax (AR)
Cc1ncsc1-c1ccc(CNC(=O)[C@@H]2C[C@@H](O)CN2C(=O)[C@@H](NC(=O)COCCOCCOCCCCCOc2ccc(N3C(=S)N(c4ccc(C#N)c(C(F)(F)F)c4)C(=O)C3(C)C)cc2)C(C)(C)C)cc1 [Compound 11]	1150 nM	105	60%	11 nM	
Cc1ncsc1-c1ccc(CNC(=O)[C@@H]2C[C@@H](O)CN2C(=O)[C@@H](NC(=O)COCCOc2ccc(N3C(=S)N(c4ccc(C#N)c(C(F)(F)F)c4)C(=O)C3(C)C)cc2)C(C)(C)C)cc1 [Compound 2]	2140 nM	<1	51%	1700 nM	
Cc1ncsc1-c1ccc(CNC(=O)[C@@H]2C[C@@H](O)CN2C(=O)[C@@H](NC(=O)CCCOc2ccc(N3C(=S)N(c4ccc(C#N)c(C(F)(F)F)c4)C(=O)C3(C)C)cc2)C(C)(C)C)cc1 [Compound 1]	970 nM			> 3000 nM	35%
Cc1ncsc1-c1ccc(CNC(=O)[C@@H]2C[C@@H](O)CN2C(=O)[C@@H](NC(=O)COCCOCCCCCOCCCCCOCCOCCOc2ccc(N3C(=S)N(c4ccc(C#N)c(C(F)(F)F)c4)C(=O)C3(C)C)cc2)C(C)(C)C)cc1 [Compound 18]	960 nM	<1	47%	> 3000 nM	
Cc1ncsc1-c1ccc(CNC(=O)[C@@H]2C[C@@H](O)CN2C(=O)[C@@H](NC(=O)COCCOCCOCCOCCOCCOCCOc2ccc(N3C(=S)N(c4ccc(C#N)c(C(F)(F)F)c4)C(=O)C3(C)C)cc2)C(C)(C)C)cc1 [Compound 16]	1750 nM			3000 nM	90%
Cc1ncsc1-c1ccc(CNC(=O)[C@@H]2C[C@@H](O)CN2C(=O)[C@@H](NC(=O)COCCOCCOCCCCOCCOCCOc2ccc(N3C(=S)N(c4ccc(C#N)c(C(F)(F)F)c4)C(=O)C3(C)C)cc2)C(C)(C)C)cc1 [Compound 15]	3480 nM			29 nM	58%
Cc1ncsc1-c1ccc(CNC(=O)[C@@H]2C[C@@H](O)CN2C(=O)[C@@H](NC(=O)COCCCOCCCCCOc2ccc(N3C(=S)N(c4ccc(C#N)c(C(F)(F)F)c4)C(=O)C3(C)C)cc2)C(C)(C)C)cc1 [Compound 9]	810 nM	23.5	83%	34.4 nM	
Cc1ncsc1-c1ccc(CNC(=O)[C@@H]2C[C@@H](O)CN2C(=O)[C@@H](NC(=O)COCCOCCOCCCOCCOCCOc2ccc(N3C(=S)N(c4ccc(C#N)c(C(F)(F)F)c4)C(=O)C3(C)C)cc2)C(C)(C)C)cc1 [Compound 14]	4950 nM			220 nM	52%
Cc1ncsc1-c1ccc(CNC(=O)[C@@H]2C[C@@H](O)CN2C(=O)[C@@H](NC(=O)COCCOCCCCOCCCCOCCOCCOc2ccc(N3C(=S)N(c4ccc(C#N)c(C(F)(F)F)c4)C(=O)C3(C)C)cc2)C(C)(C)C)cc1 [Compound 17]	1420 nM			> 3000 nM	43%
Cc1ncsc1-c1ccc(CNC(=O)[C@@H]2C[C@@H](O)CN2C(=O)[C@@H](NC(=O)COCCCOCCCOc2ccc(N3C(=S)N(c4ccc(C#N)c(C(F)(F)F)c4)C(=O)C3(C)C)cc2)C(C)(C)C)cc1 [Compound 7]			56%	390 nM	
